Where a name gives a salt, the structure may show the parent alone.

For assay [1], the target named is T1, α7-subtype of nicotinic receptors (Rattus norvegicus, UniProt Q05941).
T1 construct: Cerebral cortices from male Wistar rats (150-250 g) are homogenised; from tissue; host or cells: rat cerebral cortex membrane homogenate
As to the kind of experiment: In vitro inhibition of 3H-α-bungarotoxine binding in rat brain. As to conditions: rat cerebral cortex homogenate; 3H-α-bungarotoxine 2 nM; 2 hours at 37° C.

The target in the next assay is T2, serotonin transporter (Rattus norvegicus, UniProt P31652).
T2 construct: Cerebral cortices from male Wistar rats (150-200 g) are homogenized; from tissue; host or cells: rat cerebral cortex synaptosomes (P2 pellet)
As to the kind of experiment: In vitro inhibition of 3H-5-hydroxytryptamine uptake in cortical synaptosomes. Conditions: 3H-5-HT 1 nM, 30 minutes at 37° C. The class given is biochemical. The method, then:
In vitro Inhibition of ^3H-5-Hydroxytryptamine Uptake in Cortical Synaptosomes
Serotonin transporters/uptake sites on nerve terminals presumably function to terminate neuronal signaling by removing serotonin from the synaptic cleft. The activity of the serotonin transporter integral protein can be measured in vitro by synaptosomal uptake of ^3H-5-hydroxytryptamine (5-HT, serotonin).
Preparations are performed at 0-4° C. Cerebral cortices from male Wistar rats (150-200 g) are homogenized for 5-10 seconds in 100 volumes of ice-cold 0.32 M sucrose containing 1 mM pargyline, using a motor driven teflon pestle in a glass homogenizing vessel. Monoamine oxidase activity is inhibited in the presence of pargyline.
The homogenate is subjected to centrifugation at 1000×g for 10 minutes. The resulting supernatant is then centrifuged at 27,000×g for 50 minutes and the supernatant is discarded. […]
Aliquots of 4.0 ml tissue suspension are added to 100 μl of test solution and 100 μl of ^3H-5-HT (1 nM, final concentration), mixed and incubated for 30 minutes at 37° C. Non-specific uptake is determined using Citalopram (1 μM, final concentration, available from Lundbeck, Denmark). […]
The amount of radioactivity on the filters is determined by conventional liquid scintillation counting. Specific uptake is calculated as the difference between total uptake and non-specific uptake. […]

T1 sequence (Q05941 23-502): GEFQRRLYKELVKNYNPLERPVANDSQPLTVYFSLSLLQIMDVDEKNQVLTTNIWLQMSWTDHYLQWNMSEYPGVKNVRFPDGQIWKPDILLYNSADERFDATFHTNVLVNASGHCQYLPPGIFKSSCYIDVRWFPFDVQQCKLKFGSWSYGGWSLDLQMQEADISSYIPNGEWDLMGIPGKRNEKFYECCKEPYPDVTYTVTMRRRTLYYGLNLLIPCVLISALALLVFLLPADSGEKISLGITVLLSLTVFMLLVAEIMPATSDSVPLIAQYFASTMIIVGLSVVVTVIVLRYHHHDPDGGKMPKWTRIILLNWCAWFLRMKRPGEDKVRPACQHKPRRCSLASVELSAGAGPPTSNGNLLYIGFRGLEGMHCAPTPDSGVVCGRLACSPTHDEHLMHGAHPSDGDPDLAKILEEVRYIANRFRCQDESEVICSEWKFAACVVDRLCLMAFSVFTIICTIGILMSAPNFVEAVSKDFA
T2 sequence (P31652 whole entry): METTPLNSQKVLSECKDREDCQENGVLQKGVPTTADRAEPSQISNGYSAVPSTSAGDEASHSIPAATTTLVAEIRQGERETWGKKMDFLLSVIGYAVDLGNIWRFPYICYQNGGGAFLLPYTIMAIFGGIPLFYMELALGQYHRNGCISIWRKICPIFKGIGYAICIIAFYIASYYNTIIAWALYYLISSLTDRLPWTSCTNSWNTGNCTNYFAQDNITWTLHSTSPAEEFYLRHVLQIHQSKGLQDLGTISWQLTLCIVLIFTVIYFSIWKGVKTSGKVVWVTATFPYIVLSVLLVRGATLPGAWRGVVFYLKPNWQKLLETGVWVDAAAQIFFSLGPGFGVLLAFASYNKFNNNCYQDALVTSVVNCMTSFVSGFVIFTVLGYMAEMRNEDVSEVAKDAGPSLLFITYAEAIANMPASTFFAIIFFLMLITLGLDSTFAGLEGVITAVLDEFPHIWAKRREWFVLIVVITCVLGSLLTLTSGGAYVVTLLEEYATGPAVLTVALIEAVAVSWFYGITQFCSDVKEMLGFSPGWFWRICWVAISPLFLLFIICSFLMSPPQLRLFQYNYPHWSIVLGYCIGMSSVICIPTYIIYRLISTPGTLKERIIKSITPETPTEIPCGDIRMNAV

Turning to `CN1C[C@@H]2C[C@H]1CN2c1ccc(-c2ccsc2)nn1` [Compound 1B, 5-Methyl-2-[6-(3-thienyl)-3-pyridazinyl]-(1S,4S)-2,5-diazabicyclo-[2.2.1]-heptane], in assay [1], the IC50 (as a rule, the point on the concentration scale where inhibition reaches its midpoint) is 200 nM. The compound `c1cc(-c2ccc(N3C[C@@H]4C[C@H]3CN4)nn2)cs1` [Compound 1A, 2-[6-(3-Thienyl)-3-pyridazinyl]-(1S,4S)-2,5-diazabicyclo-[2.2.1]-heptane fumaric acid salt] returned an IC50 at serotonin transporter of 510 nM.

Consider `c1cc(-c2cnc(N3C[C@@H]4C[C@H]3CN4)cn2)cs1` [Compound 1H, 2-[5-(3-Thienyl)-2-pyrazinyl]-(1S,4S)-2,5-diazabicyclo-[2.2.1]-heptane fumaric acid salt], for which the IC50 turned out to be 260 nM in assay [1] and 21 nM against serotonin transporter.

Values taken from patent publication US7300933B2, “Diazabicyclic biaryl derivatives” (Neurosearch A/S, priority 2002, dated 2007).
